Data as given in patent US9304136B2, “Means and methods for assessing increased peroxisomal proliferation” (BASF SE, priority 2008, dated 2016).

What was measured:
female rats = assay: Plasma metabolite profiling after 28-day oral dosing, female rats (markers for peroxisomal proliferators); type: in vivo, rat; conditions: once daily gavage; for 16-Methylheptadecanoic acid, change in plasma relative to control / 17-Methyloctadecanoic acid, change in plasma relative to control / Cytosine, change in plasma relative to control / Phosphatidylcholine (C18:0/C22:6), change in plasma relative to control: marker direction down; for Coenzyme Q9, change in plasma relative to control / Gamma-Linolenic acid (C18:cis[6,9,12]3), change in plasma relative to control / Glycerol, lipid fraction, change in plasma relative to control / Palmitic acid (C16:0), change in plasma relative to control / Pantothenic acid, change in plasma relative to control / Threonic acid, change in plasma relative to control: marker direction up
Protocol: (§1) A group of each 5 male and female rats was dosed once daily with the indicated compounds (see tables below) at 10 and 100 mg/kg body weight per gavage over 28 days. Additional groups of each 5 male and female animals served as controls. Before starting the treatment period, animals, which were 62-64 days old when supplied, were acclimatized to the housing and environmental conditions for 7 days. All animals of the animal population were kept under the same constant temperature (20-24±3° C.) and the same constant humidity (30-70%). Each animal of the animal population was kept in a separate cage. The animals of the animal population are fed ad libitum. The food to be used was be essentially free of chemical or microbial contaminants. Drinking water was also offered ad libitum. Accordingly, the water was be free of chemical and microbial contaminants as laid down in the European Drinking Water Directive 98/83/EG. The illumination period was 12 hours light followed by 12 hours darkness (12 hours light, from 6:00 to 18:00, and 12 hours darkness, from 18:00 to 6:00).
(§2) In the morning of day 7, 14, and 28, blood was taken from the retroorbital venous plexus from fasted anaesthetized animals. From each animal, 1 ml of blood was collected with EDTA as anticoagulant. The samples were be centrifuged for generation of plasma. All plasma samples were covered with a N2 atmosphere and then stored at −80° C. until analysis.
(§3) For mass spectrometry-based metabolite profiling analyses plasma samples were extracted and a polar and a non-polar fraction was obtained. For GC-MS analysis, the non-polar fraction was […] with methanol under acidic conditions to yield the fatty acid methyl esters. Both fractions were further derivatised with O-methyl-hydroxyamine hydrochloride and pyridine to convert Oxo-groups to O-metyloximes and subsequently with a silyating agent […]. In LC-MS analysis, both fractions were reconstituted in appropriate solvent mixtures. HPLC was performed by gradient elution on reversed phase separation columns. For mass spectrometric detection metanomics proprietary technology was applied which allows target and high sensitivity MRM (Multiple Reaction Monitoring) profiling in parallel to a full screen analysis.
(§4) Following comprehensive analytical validation steps, the data for each analyte were normalized against data from pool samples. These samples were run in parallel through the whole process to account for process variability. The significance of treatment group values specific for sex, dose group and metabolite was determined by comparing means of the treated groups to the means of the respective untreated control groups using Student's t-test. Normalized treatment group values and their significance were fed into a database for further statistics and data mining processes.
(§5) The changes of the group of plasma metabolites being indicative for increased peroxisomal proliferation after treatment of the rats are shown in the following tables: […]

male rats = assay: Plasma metabolite profiling after 28-day oral dosing, male rats (markers for peroxisomal proliferators); type: in vivo, rat; conditions: once daily gavage; for 16-Methylheptadecanoic acid, change in plasma relative to control / 17-Methyloctadecanoic acid, change in plasma relative to control / Coenzyme Q10, change in plasma relative to control / Proline, change in plasma relative to control / Threonine, change in plasma relative to control / Tyrosine, change in plasma relative to control / trans-4-Hydroxyproline, change in plasma relative to control: marker direction down; for Eicosatrienoic acid (C20:3), change in plasma relative to control: marker direction up
Protocol: as §1, §2, §3, §4, §5

## CCCCOC(=O)c1ccccc1C(=O)OCc1ccccc1 [Benzylbutyl Phthalate]
Female rats; fh7 (day 7)
  16-Methylheptadecanoic acid, change in plasma relative to control: 0.55
  17-Methyloctadecanoic acid, change in plasma relative to control: 0.78
  Cytosine, change in plasma relative to control: 0.77
  Phosphatidylcholine (C18:0/C22:6), change in plasma relative to control: 0.59
  Coenzyme Q9, change in plasma relative to control: 1.44
  Gamma-Linolenic acid (C18:cis[6,9,12]3), change in plasma relative to control: 1.98
  Glycerol, lipid fraction, change in plasma relative to control: 1.15
  Palmitic acid (C16:0), change in plasma relative to control: 1.48
  Pantothenic acid, change in plasma relative to control: 1.82
  Threonic acid, change in plasma relative to control: 1.20
Female rats; fh14 (day 14)
  16-Methylheptadecanoic acid, change in plasma relative to control: 0.66
  17-Methyloctadecanoic acid, change in plasma relative to control: 0.64
  Cytosine, change in plasma relative to control: 0.63
  Phosphatidylcholine (C18:0/C22:6), change in plasma relative to control: 0.86
  Coenzyme Q9, change in plasma relative to control: 1.50
  Gamma-Linolenic acid (C18:cis[6,9,12]3), change in plasma relative to control: 1.64
  Glycerol, lipid fraction, change in plasma relative to control: 1.48
  Palmitic acid (C16:0), change in plasma relative to control: 1.79
  Pantothenic acid, change in plasma relative to control: 2.06
  Threonic acid, change in plasma relative to control: 1.53
Female rats; fh28 (day 28)
  16-Methylheptadecanoic acid, change in plasma relative to control: 0.85
  17-Methyloctadecanoic acid, change in plasma relative to control: 0.69
  Cytosine, change in plasma relative to control: 0.79
  Phosphatidylcholine (C18:0/C22:6), change in plasma relative to control: 0.81
  Coenzyme Q9, change in plasma relative to control: 1.78
  Gamma-Linolenic acid (C18:cis[6,9,12]3), change in plasma relative to control: 2.08
  Glycerol, lipid fraction, change in plasma relative to control: 2.43
  Palmitic acid (C16:0), change in plasma relative to control: 1.94
  Pantothenic acid, change in plasma relative to control: 2.42
  Threonic acid, change in plasma relative to control: 1.74
Male rats; mh7 (day 7)
  16-Methylheptadecanoic acid, change in plasma relative to control: 0.24
  17-Methyloctadecanoic acid, change in plasma relative to control: 0.37
  Coenzyme Q10, change in plasma relative to control: 0.51
  Proline, change in plasma relative to control: 0.74
  Threonine, change in plasma relative to control: 0.55
  Tyrosine, change in plasma relative to control: 0.74
  trans-4-Hydroxyproline, change in plasma relative to control: 0.69
  Eicosatrienoic acid (C20:3), change in plasma relative to control: 2.56
Male rats; mh14 (day 14)
  16-Methylheptadecanoic acid, change in plasma relative to control: 0.31
  17-Methyloctadecanoic acid, change in plasma relative to control: 0.28
  Coenzyme Q10, change in plasma relative to control: 0.34
  Proline, change in plasma relative to control: 0.85
  Threonine, change in plasma relative to control: 0.69
  Tyrosine, change in plasma relative to control: 0.83
  trans-4-Hydroxyproline, change in plasma relative to control: 0.65
  Eicosatrienoic acid (C20:3), change in plasma relative to control: 3.12
Male rats; mh28 (day 28)
  16-Methylheptadecanoic acid, change in plasma relative to control: 0.20
  17-Methyloctadecanoic acid, change in plasma relative to control: 0.30
  Coenzyme Q10, change in plasma relative to control: 0.27
  Proline, change in plasma relative to control: 0.84
  Threonine, change in plasma relative to control: 0.81
  Tyrosine, change in plasma relative to control: 0.97
  trans-4-Hydroxyproline, change in plasma relative to control: 0.83
  Eicosatrienoic acid (C20:3), change in plasma relative to control: 4.12

## CCOC(=O)C(C)(C)Oc1ccc(Cl)cc1 [Clofibrate]
Female rats; fh7 (day 7)
  16-Methylheptadecanoic acid, change in plasma relative to control: 0.55
  17-Methyloctadecanoic acid, change in plasma relative to control: 0.48
  Cytosine, change in plasma relative to control: 0.87
  Phosphatidylcholine (C18:0/C22:6), change in plasma relative to control: 0.88
  Coenzyme Q9, change in plasma relative to control: 1.86
  Gamma-Linolenic acid (C18:cis[6,9,12]3), change in plasma relative to control: 2.04
  Glycerol, lipid fraction, change in plasma relative to control: 1.39
  Palmitic acid (C16:0), change in plasma relative to control: 1.05
  Pantothenic acid, change in plasma relative to control: 1.07
  Threonic acid, change in plasma relative to control: 1.23
Female rats; fh14 (day 14)
  16-Methylheptadecanoic acid, change in plasma relative to control: 0.75
  17-Methyloctadecanoic acid, change in plasma relative to control: 0.57
  Cytosine, change in plasma relative to control: 0.86
  Phosphatidylcholine (C18:0/C22:6), change in plasma relative to control: 0.71
  Coenzyme Q9, change in plasma relative to control: 1.64
  Gamma-Linolenic acid (C18:cis[6,9,12]3), change in plasma relative to control: 1.88
  Glycerol, lipid fraction, change in plasma relative to control: 1.64
  Palmitic acid (C16:0), change in plasma relative to control: 1.38
  Pantothenic acid, change in plasma relative to control: 1.75
  Threonic acid, change in plasma relative to control: 1.30
Female rats; fh28 (day 28)
  16-Methylheptadecanoic acid, change in plasma relative to control: 0.75
  17-Methyloctadecanoic acid, change in plasma relative to control: 0.77
  Cytosine, change in plasma relative to control: 1.00
  Phosphatidylcholine (C18:0/C22:6), change in plasma relative to control: 0.53
  Coenzyme Q9, change in plasma relative to control: 2.55
  Gamma-Linolenic acid (C18:cis[6,9,12]3), change in plasma relative to control: 7.00
  Glycerol, lipid fraction, change in plasma relative to control: 4.99
  Palmitic acid (C16:0), change in plasma relative to control: 2.31
  Pantothenic acid, change in plasma relative to control: 1.22
  Threonic acid, change in plasma relative to control: 1.30
Male rats; mh7 (day 7)
  16-Methylheptadecanoic acid, change in plasma relative to control: 0.24
  17-Methyloctadecanoic acid, change in plasma relative to control: 0.35
  Coenzyme Q10, change in plasma relative to control: 0.45
  Proline, change in plasma relative to control: 0.78
  Threonine, change in plasma relative to control: 0.68
  Tyrosine, change in plasma relative to control: 0.87
  trans-4-Hydroxyproline, change in plasma relative to control: 0.77
  Eicosatrienoic acid (C20:3), change in plasma relative to control: 1.65
Male rats; mh14 (day 14)
  16-Methylheptadecanoic acid, change in plasma relative to control: 0.21
  17-Methyloctadecanoic acid, change in plasma relative to control: 0.27
  Coenzyme Q10, change in plasma relative to control: 0.60
  Proline, change in plasma relative to control: 0.80
  Threonine, change in plasma relative to control: 1.02
  Tyrosine, change in plasma relative to control: 0.95
  trans-4-Hydroxyproline, change in plasma relative to control: 0.64
  Eicosatrienoic acid (C20:3), change in plasma relative to control: 1.72
Male rats; mh28 (day 28)
  16-Methylheptadecanoic acid, change in plasma relative to control: 0.28
  17-Methyloctadecanoic acid, change in plasma relative to control: 0.37
  Coenzyme Q10, change in plasma relative to control: 0.47
  Proline, change in plasma relative to control: 0.87
  Threonine, change in plasma relative to control: 1.06
  Tyrosine, change in plasma relative to control: 1.02
  trans-4-Hydroxyproline, change in plasma relative to control: 0.57
  Eicosatrienoic acid (C20:3), change in plasma relative to control: 2.54
